According to the NIST ThermoML archive (doi:10.1021/je900414p):

Conditions: Liquid

CCOS(=O)(=O)[O-].CCn1cc[n+](C)c1 [1-ethyl-3-methylimidazolium ethyl sulfate]
mass density [kg/m3]
Conditions	100 kPa	2500 kPa	5000 kPa	10000 kPa	15000 kPa	20000 kPa	25000 kPa	30000 kPa	35000 kPa
283.15 K	1247.6	1248.59	1249.58	1251.56	1253.65	1255.44	1257.31	1259.18	1261.04
288.15 K	1244.17	1245.15	1246.17	1248.17	1250.14	1252.1	1254.03	1255.9	1257.77
293.15 K	1240.67	1241.7	1242.72	1244.75	1246.75	1248.72	1250.66	1252.56	1254.46
298.15 K	1237.33	1238.32	1239.36	1241.41	1243.42	1245.42	1247.38	1249.31	1251.22
303.15 K	1233.95	1234.96	1236.02	1238.1	1240.14	1242.15	1244.14	1246.11	1248.06
308.15 K	1230.49	1231.54	1232.6	1234.71	1236.78	1238.83	1240.83	1242.81	1244.76
313.15 K	1227.14	1228.21	1229.29	1231.41	1233.51	1235.57	1237.6	1239.6	1241.57
318.15 K	1223.86	1224.94	1226.03	1228.17	1230.31	1232.4	1234.44	1236.49	1238.47
323.15 K	1220.46	1221.54	1222.66	1224.85	1226.99	1229.11	1231.18	1233.23	1235.25
328.15 K	1217.07	1218.15	1219.31	1221.5	1223.69	1225.81	1227.93	1229.99	1232.04
333.15 K	1213.67	1214.63	1215.87	1218.14	1220.35	1222.53	1224.65	1226.74	1228.8
338.15 K	1210.4	1211.52	1212.68	1214.94	1217.17	1219.36	1221.51	1223.61	1225.71

CCO [ethanol]
mass density [kg/m3]
Conditions	100 kPa	2500 kPa	5000 kPa	10000 kPa	15000 kPa	20000 kPa	25000 kPa	30000 kPa	35000 kPa
283.15 K	797.76	799.74	801.73	805.58	809.28	812.8	816.2	819.47	822.63
288.15 K	793.65	795.66	797.73	801.67	805.43	809.06	812.52	815.87	819.04
293.15 K	789.19	791.25	793.37	797.42	801.3	804.99	808.53	811.94	815.23
298.15 K	784.92	787.03	789.21	793.38	797.34	801.11	804.75	808.21	811.58
303.15 K	780.63	782.81	785.04	789.3	793.37	797.25	800.93	804.49	807.95
308.15 K	776.26	778.54	780.82	785.22	789.37	793.34	797.14	800.76	804.27
313.15 K	771.91	774.26	776.62	781.13	785.4	789.45	793.33	797.04	800.61
318.15 K	767.58	769.99	772.41	777.04	781.43	785.59	789.55	793.36	796.98
323.15 K	763.09	765.56	768.08	772.84	777.34	781.59	785.65	789.53	793.24
328.15 K	758.54	761.09	763.7	768.58	773.22	777.57	781.73	785.7	789.5
333.15 K	753.96	756.61	759.27	764.32	769.08	773.56	777.81	781.87	785.76
338.15 K	749.42	752.16	754.89	760.09	764.99	769.59	773.96	778.09	782.06
343.15 K	744.74	747.57	750.39	755.74	760.75	765.47	769.94	774.17	778.23
